Square brackets hold non-standard residues; d marks the D form. Peptide text beside a SMILES is read from it. * marks the point of attachment. X1 = C[n+]1c(-c2ccc3c(c2)CCCN3CCCCCC(=O)*)sc2cc(Br)ccc21; dBip = N[C@H](Cc1ccc(-c2ccccc2)cc1)C(=O)O
Assays:
[1] = molecular target: Aβ1-42 aggregated in advance (Homo sapiens, UniProt P05067); test: Aβ affinity (Kd association curve from fluorescence intensity); format: binding; details: aggregated Aβ1-42 0.5 μM, phosphate buffer pH 7.4, room temperature 1 hour
Source text: For compound (1a), the excitation wavelength was set to 460 nm, and the fluorescence wavelength was set to 515 nm. A Kd association curve was obtained from the fluorescence intensity using KaleidaGraph 4.5 (Synergy Software, Reading, Pa.).

PC12 cells = format: cell-based, rat
Protocol: The solution was added at 50 μL/well to rat adrenal medulla-derived pheochromocytoma PC12 cells (purchased from RIKEN, Japan) inoculated to a poly-D-lysine-coated 96-well plate and similarly reacted. The reaction solution in each well was diluted with 50 μL of a Dulbecco's modified eagle's medium containing 0.1% horse serum (final concentration of Aβ: 10 μM) and then incubated at 37° C. for 48 hours in a 5% CO2 atmosphere. A live cell count measurement reagent SF containing WST-8 (10 μL; purchased from Nacalai Tesque, Inc.) was added to each well, and the mixture was incubated at 37° C. for 3 hours in a 5% CO2 atmosphere. Then, the cell viability was measured from absorbance at 450 nm (reference wavelength: 655 nm).

Aβ1-42 = Aβ1-42 (Homo sapiens, UniProt P05067); test: Oxygenation of Aβ1-42 in cell culture medium; format: biochemical; details: 50 mmol %, light 500 nm, 30 minutes, medium containing 0.1% horse serum
Source text: Then, the reaction was monitored with a mass spectrometer (MALDI-TOF MS).

Chain of Aβ1-42 (P05067 672-713 limits assumed): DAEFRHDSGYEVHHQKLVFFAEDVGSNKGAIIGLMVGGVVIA
Chain of Aβ1-42 aggregated in advance (P05067 672-713 limits assumed): as above

Kd [1]	oxygenation of Aβ in a cell medium (Aβ1-42)	SMILES	phototoxicity (cell viability) (PC12 cells)
1.1 µM		C[n+]1c(-c2cc3c4c(c2)CCCN4CCC3)sc2cc(Br)ccc21 [compound (1a)]	
	approximately 40%	CC(C)C[C@@H](NC(=O)[C@@H](CCCCN)NC(=O)CCCCCN1CCCc2cc(-c3sc4cc(Br)ccc4[n+]3C)ccc21)C(=O)N[C@@H](C(=O)N[C@H](Cc1ccc(-c2ccccc2)cc1)C(=O)N[C@H](Cc1ccccc1)C(=O)O)C(C)C [1e] (X1-[dK][dL][dV][dBip][dF]-OH)	no phototoxicity
